Results reported in patent publication US10316028B2, “Orexin receptor antagonists” (Heptares Therapeutics Limited, priority 2012, dated 2019).

Molecular target: T1, human Orexin-2 receptor (Homo sapiens, UniProt O43614)
T1 construct: expressed in transfected cells; host or cells: HEK293 cells (transient transfection, Genejuice); membranes
T1 sequence (O43614 1-444): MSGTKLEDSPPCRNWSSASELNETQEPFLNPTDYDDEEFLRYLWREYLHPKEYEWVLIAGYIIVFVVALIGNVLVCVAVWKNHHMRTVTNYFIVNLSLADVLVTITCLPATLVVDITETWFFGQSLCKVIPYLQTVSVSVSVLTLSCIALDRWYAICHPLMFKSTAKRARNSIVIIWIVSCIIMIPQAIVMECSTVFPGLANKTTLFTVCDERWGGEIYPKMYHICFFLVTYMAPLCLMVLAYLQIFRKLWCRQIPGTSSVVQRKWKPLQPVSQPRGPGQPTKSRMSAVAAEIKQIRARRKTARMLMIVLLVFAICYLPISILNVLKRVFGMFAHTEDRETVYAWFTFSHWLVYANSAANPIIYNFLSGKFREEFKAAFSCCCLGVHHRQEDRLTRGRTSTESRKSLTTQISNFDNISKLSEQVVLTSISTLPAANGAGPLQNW
Assay: 3H-EMPA radioligand binding assay
Conditions: 3H-EMPA displacement, membranes of HEK293 cells transfected with human Orexin-2 receptor; KI by Cheng-Prussoff; read-out: OX2 pKi ave (converted)
Description: cDNA encoding the human Orexin-2 receptor was transfected into HEK293 cells using the transfection reagent Genejuice (Novagen). Forty-eight hours after transfection, cells were harvested and washed twice with ice cold phosphate-buffered saline. The pellet was resuspended in ice-cold buffer containing 20 mM Tris-HCl, pH 7.4, 1 mM EDTA and homogenised with an Ultraturax for 30 s at maximum speed. After centrifugation at 48,000 g for 30 min at 4° C., the pellet was resuspended and spun again. The final pellet was resuspended and frozen at −80° C. before use. Protein concentration was determined using the BCA protein assay method.
^3H-EMPA Radioligand Binding Assay
At the end of the incubation, membranes were filtered onto a unifilter, a 96-well white microplate with bonded GF/B filter pre-incubated with 0.5% polyethylenimine, with a Tomtec cell harvester and washed 4 times with distilled water. […] Radioactivity on the filter was counted (1 min) on a microbeta counter after addition of 50 µL of scintillation fluid. […] IC50 values were derived from the inhibition curve and the equilibrium dissociation constant (KI) values were calculated using the Cheng-Prussoff equation.

Structure (SMILES)	Ki [nM]
Cc1ccc(N2C(=O)N(Cc3c(F)cccc3Cl)c3ccccc3S2(=O)=O)cc1C [Example 34, 4-(2-chloro-6-nuorobenzyl)-2-(3,4-dimethylphenyl)-2H-1,2,4-benzothiadiazin-3(4H)-one 1,1-dioxide]	1.12
COc1ccccc1N1C(=O)N(Cc2c(F)cccc2Cl)c2ccccc2S1(=O)=O [Example 35, 4-(2-chloro-6-fluorobenzyl)-2-(2-methoxyphenyl)-2H-1,2,4-benzothiadiazin-3(4H)-one 1,1-dioxide]	31.6
COc1cccc(N2C(=O)N(Cc3c(F)cccc3Cl)c3ccccc3S2(=O)=O)c1 [Example 36, 4-(2-chloro-6-fluorobenzyl)-2-(3-methoxyphenyl)-2H-1,2,4-benzothiadiazin-3(4H)-one 1,1-dioxide]	15.8
CCc1ccc(N2C(=O)N(Cc3c(F)cccc3Cl)c3ccccc3S2(=O)=O)cc1 [Example 37, 4-(2-chloro-6-fluorobenzyl)-2-(4-ethylphenyl)-2H-1,2,4-benzothiadiazin-3(4H)-one 1,1-dioxide]	5.01
Cc1cccc(N2C(=O)N(Cc3c(F)cccc3Cl)c3ccccc3S2(=O)=O)c1C [Example 38, 4-(2-chloro-6-fluorobenzyl)-2-(2,3-dimethylphenyl)-2H-1,2,4-benzothiadiazin-3(4H)-one 1,1-dioxide]	15.8
O=C1N(Cc2c(F)cccc2Cl)c2ccccc2S(=O)(=O)N1Cc1ccc(F)cc1 [Example 39, 4-(2-chloro-6-fluorobenzyl)-2-(4-fluorobenzyl)-2H-1,2,4-benzothiadiazin-3(4H)-one 1,1-dioxide]	20
O=C1N(Cc2c(F)cccc2Cl)c2ccccc2S(=O)(=O)N1Cc1ccccc1 [Example 40, 2-benzyl-4-(2-chloro-6-fluorobenzyl)-2H-1,2,4-benzothiadiazin-3(4H)-one 1,1-dioxide]	26.3
Cc1ccc(Cl)cc1N1C(=O)N(Cc2c(F)cccc2Cl)c2ccccc2S1(=O)=O [Example 41, 4-(2-chloro-6-fluorobenzyl)-2-(5-chloro-2-methylphenyl)-2H-1,2,4-benzothiadiazin-3(4H)-one 1,1-dioxide]	25.1
O=C1N(Cc2c(F)cccc2Cl)c2ccccc2S(=O)(=O)N1c1cccc(Cl)c1 [Example 42, 4-(2-chloro-6-fluorobenzyl)-2-(3-chlorophenyl)-2H-1,2,4-benzothiadiazin-3(4H)-one 1,1-dioxide]	14.1
Cc1ccc(N2C(=O)N(Cc3c(F)cccc3Cl)c3ccccc3S2(=O)=O)cc1F [Example 43, 4-(2-chloro-6-fluorobenzyl)-2-(3-fluoro-4-methylphenyl)-2H-1,2,4-benzothiadiazin-3(4H)-one 1,1-dioxide]	4.68
O=C1N(Cc2c(F)cccc2Cl)c2ccccc2S(=O)(=O)N1c1ccc(F)cc1 [Example 44, 4-(2-chloro-6-fluorobenzyl)-2-(4-fluorophenyl)-2H-1,2,4-benzothiadiazin-3(4H)-one 1,1-dioxide]	31.6
Cc1ccc(N2C(=O)N(Cc3c(F)cccc3Cl)c3ccccc3S2(=O)=O)c(C)c1 [Example 45, 4-(2-chloro-6-fluorobenzyl)-2-(2,4-dimethylphenyl)-2H-1,2,4-benzothiadiazin-3(4H)-one 1,1-dioxide]	16.6
O=C1N(Cc2c(F)cccc2Cl)c2ccccc2S(=O)(=O)N1c1cc(F)ccc1F [Example 46, 4-(2-chloro-6-fluorobenzyl)-2-(2,5-difluorophenyl)-2H-1,2,4-benzothiadiazin-3(4H)-one 1,1-dioxide]	63.1
CCc1cccc(N2C(=O)N(Cc3c(F)cccc3Cl)c3ccccc3S2(=O)=O)c1 [Example 47, 4-(2-chloro-6-fluorobenzyl)-2-(3-ethylphenyl)-2H-1,2,4-benzothiadiazin-3(4H)-one 1,1-dioxide]	2.51
CC(C)c1ccc(N2C(=O)N(Cc3c(F)cccc3Cl)c3ccccc3S2(=O)=O)cc1 [Example 48, 4-(2-chloro-6-fluorobenzyl)-2-[4-(propan-2-yl)phenyl]-2H-1,2,4-benzothiadiazin-3(4H)-one 1,1-dioxide]	3.72
CSc1cccc(N2C(=O)N(Cc3c(F)cccc3Cl)c3ccccc3S2(=O)=O)c1 [Example 49, 4-(2-chloro-6-fluorobenzyl)-2-[3-(methylsulfanyl)phenyl]-2H-1,2,4-benzothiadiazin-3(4H)-one 1,1-dioxide]	1.05

Structure (SMILES)	Ki [nM]
CSc1cccc(N2C(=O)N(Cc3ccc(F)cc3Cl)c3ccccc3S2(=O)=O)c1 [Example 50, 4-(2-chloro-4-fluorobenzyl)-2-[3-(methylsulfanyl)phenyl]-2H-1,2,4-benzothiadiazin-3(4H)-one 1,1-dioxide]	35.5
CSc1cccc(N2C(=O)N(Cc3cc(C)ccc3C)c3ccccc3S2(=O)=O)c1 [Example 51, 4-(2,5-dimethylbenzyl)-2-[3-(methylsulfanyl)phenyl]-2H-1,2,4-benzothiadiazin-3(4H)-one 1,1-dioxide]	17.8
COC(=O)c1ccc(OC)c(CN2C(=O)N(c3cccc(SC)c3)S(=O)(=O)c3ccccc32)c1 [Example 52, methyl 3-({2-[3-(methylsulfanyl)phenyl]-1,1-dioxido-3-oxo-2,3-dihydro-4H-1,2,4-benzothiadiazin-4-yl}methyl)-4-methoxybenzoate]	2.63
Cc1ccc(N2C(=O)N(Cc3ccccc3F)c3ccccc3S2(=O)=O)cc1Cl [Example 53, 4-(2-fluorobenzyl)-2-(3-chloro-4-methylphenyl)-2H-1,2,4-benzothiadiazin-3(4H)-one 1,1-dioxide]	31.6
Cc1ccc(N2C(=O)N(Cc3ccccc3C)c3ccccc3S2(=O)=O)cc1Cl [Example 54, 4-(2-methylbenzyl)-2-(3-chloro-4-methylphenyl)-2H-1,2,4-benzothiadiazin-3(4H)-one 1,1-dioxide]	43.7
Cc1cc(C)cc(N2C(=O)N(Cc3ccccc3Cl)c3ccccc3S2(=O)=O)c1 [Example 55, 4-(2-chlorobenzyl)-2-(3,5-dimethylphenyl)-2H-1,2,4-benzothiadiazin-3(4H)-one 1,1-dioxide]	30.9
Cc1cc(C)cc(N2C(=O)N(Cc3ccccc3F)c3ccccc3S2(=O)=O)c1 [Example 56, 4-(2-fluorobenzyl)-2-(3,5-dimethylphenyl)-2H-1,2,4-benzothiadiazin-3(4H)-one 1,1-dioxide]	20.9
Cc1ccc(N2C(=O)N(Cc3ccccc3F)c3ccccc3S2(=O)=O)cc1C [Example 57, 4-(2-fluorobenzyl)-2-(3,4-dimethylphenyl)-2H-1,2,4-benzothiadiazin-3(4H)-one 1,1-dioxide]	23.4
O=C1N(Cc2ccccc2Cl)c2ccccc2S(=O)(=O)N1Cc1ccccc1 [Example 58, 2-benzyl-4-(2-chlorobenzyl)-2H-1,2,4-benzothiadiazin-3(4H)-one 1,1-dioxide]	933
Cc1ccc(N2C(=O)N(Cc3ccccc3Cl)c3ccccc3S2(=O)=O)cc1C [Example 59, 4-(2-chlorobenzyl)-2-(3,4-dimethylphenyl)-2H-1,2,4-benzothiadiazin-3(4H)-one 1,1-dioxide]	43.7
COC(=O)c1ccc(OC)c(CN2C(=O)N(c3ccc(OC)c(OC)c3)S(=O)(=O)c3ccccc32)c1 [Example 60, methyl 3-{[2-(3,4-dimethoxyphenyl)-1,1-dioxido-3-oxo-2,3-dihydro-4H-1,2,4-benzothiadiazin-4-yl]methyl}-4-methoxybenzoate]	40.7
CSc1cccc(N2C(=O)N(CC3CCC3)c3ccccc3S2(=O)=O)c1 [Example 61, 4-(Cyclobutylmethyl)-2-[3-(methylsulfanyl)phenyl]-2H-1,2,4-benzothiadiazin-3(4H)-one 1,1-dioxide]	269
CSc1cccc(N2C(=O)N(CC3CCCCC3)c3ccccc3S2(=O)=O)c1 [Example 62, 4-(Cyclohexylmethyl)-2-[3-(methylsulfanyl)phenyl]-2H-1,2,4-benzothiadiazin-3(4H)-one 1,1-dioxide]	871
CSc1cccc(N2C(=O)N(C(C)c3ccccc3F)c3ccc(F)cc3S2(=O)=O)c1 (centres unmarked) [Example 63, 7-Fluoro-4-[1-(2-fluorophenyl)ethyl]-2-[3-(methylsulfanyl)phenyl]-2H-1,2,4-benzothiadiazin-3(4H)-one 1,1-dioxide]	832
O=C1N(Cc2c(F)cccc2Cl)c2ccccc2S(=O)(=O)N1CC1CCCCC1 [Example 64, 4-(2-Chloro-6-fluorobenzyl)-2-(cyclohexylmethyl)-2H-1,2,4-benzothiadiazin-3(4H)-one 1,1-dioxide]	661
N#Cc1ccc(CN2C(=O)N(Cc3c(F)cccc3F)c3ccccc3S2(=O)=O)cc1F [Example 65, 4-{[4-(2,6-Difluorobenzyl)-1,1-dioxido-3-oxo-3,4-dihydro-2H-1,2,4-benzothiadiazin-2-yl]methyl}-2-fluorobenzonitrile]	200
